Reference: ChEMBL document CHEMBL1649182, “Binding of faropenem and other beta-lactam agents to penicillin-binding proteins of pneumococci with various beta-lactam susceptibilities” (Antimicrob Agents Chemother, 2009)
Values after ≈ are worked out from the molar mass of the structure shown.

What follows are compounds tested against T1, Penicillin-binding protein 2B (Streptococcus pneumoniae serotype 4 (strain ATCC BAA-334 / TIGR4), UniProt P0A3M5) (assay: Displacement of Biocillin FL from Streptococcus pneumoniae 2527 PBP2B).
T1 sequence (P0A3M5 whole entry): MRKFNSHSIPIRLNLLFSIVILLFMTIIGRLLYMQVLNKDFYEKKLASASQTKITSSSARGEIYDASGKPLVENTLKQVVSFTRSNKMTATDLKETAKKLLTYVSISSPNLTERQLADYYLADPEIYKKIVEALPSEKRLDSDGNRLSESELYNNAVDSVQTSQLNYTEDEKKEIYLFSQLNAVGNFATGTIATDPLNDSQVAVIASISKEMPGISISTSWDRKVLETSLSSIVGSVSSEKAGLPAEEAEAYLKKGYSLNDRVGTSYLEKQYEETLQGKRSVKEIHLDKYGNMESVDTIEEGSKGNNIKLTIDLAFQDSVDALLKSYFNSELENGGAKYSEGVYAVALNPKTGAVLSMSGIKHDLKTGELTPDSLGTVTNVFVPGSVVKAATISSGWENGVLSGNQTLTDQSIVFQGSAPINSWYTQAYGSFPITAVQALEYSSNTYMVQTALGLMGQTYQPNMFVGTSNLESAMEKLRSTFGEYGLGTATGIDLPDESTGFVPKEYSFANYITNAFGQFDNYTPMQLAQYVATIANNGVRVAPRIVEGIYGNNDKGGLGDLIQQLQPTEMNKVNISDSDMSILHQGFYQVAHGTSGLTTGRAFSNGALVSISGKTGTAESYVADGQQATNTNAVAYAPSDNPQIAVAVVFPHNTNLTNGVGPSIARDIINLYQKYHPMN

Question: How did the IC50 turn out when `C[C@@H](O)[C@H]1C(=O)N2C(C(=O)O)=C([C@H]3CCCO3)S[C@H]12` [FAROPENEM] was run?
Answer: Its IC50 is 35 nM.

Question: For `C[C@@H](O)[C@H]1C(=O)N2C(C(=O)O)=C(SCCNC=N)C[C@H]12` [IMIPENEM ANHYDROUS], which IC50 is on record?
Answer: The IC50 was 207 nM.

Question: `CC1(C)S[C@@H]2[C@H](NC(=O)Cc3ccccc3)C(=O)N2[C@H]1C(=O)O` [PENICILLIN G] was tested. Which IC50 did it give?
Answer: The IC50 was 287 nM.

Question: `CC1(C)S[C@@H]2[C@H](NC(=O)[C@H](N)c3ccc(O)cc3)C(=O)N2[C@H]1C(=O)O` [AMOXICILLIN] was tested. Which IC50 did it give?
Answer: The IC50 was 90.3 nM.

Question: `CO/N=C(\C(=O)N[C@@H]1C(=O)N2C(C(=O)O)=C(COC(N)=O)CS[C@H]12)c1ccco1` [CEFUROXIME] was tested. Which IC50 did it give?
Answer: Its IC50 is 6230 nM.

These compounds were tested on Streptococcus pneumoniae (assay: Antimicrobial activity against Streptococcus pneumoniae serotype 19A).
Assay type: functional

Question: With `C[C@@H](O)[C@H]1C(=O)N2C(C(=O)O)=C([C@H]3CCCO3)S[C@H]12` [FAROPENEM] as the compound, how does the MIC90 read?
Answer: The MIC90 was 1 µg/mL (≈ 3.5 µM).
